Counter-ions that a name gives are not always drawn. Like-named read-outs stand apart in the source and are kept apart here.
Assays:
dopamine receptors [1] = details: Welch et al. 1980; cited from earlier work
dopamine (D-2) receptors = molecular target: T1, dopamine (D-2) receptors (Rattus norvegicus, UniProt P61169); assay: In Vitro Dopamine (D-2) Receptor Binding, [3H]sulpiride; details: read-out: Dopamine D-2 [3H]sulpiride Ki
T1 construct: the corpus striatum was dissected and homogenized; from tissue; host or cells: rat corpus striatum membranes
T1 sequence (P61169 whole entry): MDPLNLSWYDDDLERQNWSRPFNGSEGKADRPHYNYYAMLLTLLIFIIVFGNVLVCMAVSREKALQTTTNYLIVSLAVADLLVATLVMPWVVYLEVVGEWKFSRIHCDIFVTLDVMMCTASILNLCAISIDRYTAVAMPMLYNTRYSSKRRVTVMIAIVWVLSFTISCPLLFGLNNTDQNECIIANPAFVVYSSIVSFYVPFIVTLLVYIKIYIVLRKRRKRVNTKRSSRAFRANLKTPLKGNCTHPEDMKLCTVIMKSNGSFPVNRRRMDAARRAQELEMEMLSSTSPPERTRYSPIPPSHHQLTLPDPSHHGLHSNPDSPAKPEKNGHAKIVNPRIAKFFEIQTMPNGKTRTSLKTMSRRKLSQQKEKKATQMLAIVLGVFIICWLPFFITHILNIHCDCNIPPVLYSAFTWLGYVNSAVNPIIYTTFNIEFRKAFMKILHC
Procedure: On the day of assay, rats were sacrificed by decapitation, the corpus striatum was dissected and homogenized in 20 volumes of ice-cold 50 mM Tris HCl (pH 7.5, 25° C.). The homogenate was centrifuged (4° C.) at 48,000×g for 10 minutes and the resulting pellet was resuspended in 20 volumes of fresh buffer and recentrifuged. […] A portion of the suspension (800 μL) was added in triplicate to tubes containing 3 nM [^3 H]sulpiride and the test compound. The final assay volume was 1 mL; haloperidol (10 μM) was used to determine non-specific binding. Following a 60 minute incubation at 25° C., the reactions were terminated by rapid filtration over Whatman GF/B filters which had been pretreated in a solution of 0.3% (w/v) of aqueous polyethylenimine. Filters were washed three times using 5 mL of ice-cold buffer and processed using standard procedures to determine radioactivity. IC50 values were obtained from concentration-response curves in which a number of concentrations of test compound were examined. Ki values were determined using the Cheng-Prusoff equation.

[2] = molecular target: T2, sigma receptor ([3H](+)-3-PPP site) (Cavia porcellus, UniProt Q60492); assay: In Vitro Sigma Receptor Binding, [3H](+)-3-PPP; parameters: species or system guinea pig; details: 45 minutes at 25° C.
T2 construct: frozen guinea pig brains; tissue PelFreez Biologicals, Rogers, AK; host or cells: guinea pig brain membranes
T2 sequence (Q60492 whole entry): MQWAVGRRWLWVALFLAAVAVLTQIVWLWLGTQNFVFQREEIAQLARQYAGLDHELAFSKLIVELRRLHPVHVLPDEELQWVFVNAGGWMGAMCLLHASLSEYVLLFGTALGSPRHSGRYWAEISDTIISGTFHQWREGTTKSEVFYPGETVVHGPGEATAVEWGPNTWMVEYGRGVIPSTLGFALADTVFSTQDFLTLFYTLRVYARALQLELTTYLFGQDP
Procedure: (§1) For both assays frozen guinea pig brains (PelFreez Biologicals, Rogers, AK) were thawed and homogenized in 10 volumes (w/v) of ice cold 0.32M sucrose using 10 strokes of a motor-drivenglass-fitted teflon pestle adjusted to 600 rpm. The homogenate was centrifuged (4° C.) at 900× g for 10 minutes and the resultant supernatant collected and centrifuged at 22,000×g for 20 minutes. The pellet obtained from the centrifugation was resuspended in 10 volumes of 50 mM Tris HCl (pH 7.4, 25° C.) and incubated for 30 minutes at 37° C. Following the preincubation, the homogenate was centrifuted at 22,000×g for 20 minutes and the final pellet was resuspended in buffer to a protein concentration of 0.5-1.0 mg/mL for use in the assay.
(§2) Binding reactions were initiated by the addition of tissue (800 μL) to tubes containing assay buffer, the radioligand (final concentration 1-3 nM) and the compound of interest. Haloperidol (10 μM) and (+)-3-PPP (10 μM) were used to determine the levels of […] [^3 H]DTG and [^3 H](+)PPP binding, respectively. Final assay volume was 1 mL. Reactions were allowed to proceed for 45 minutes at 25° C. and terminated by rapid filtration over Whatman GF/B filters which were washed 3 times with 5 mL of cold buffer. Radioactivity trapped on the filters was determined using routine methods. […] All assays were performed using triplicate determinations. For comparison purposes, IC50 values are reported rather than Ki values.

[3] = molecular target: T3, serotonin 5-HT2 receptors (Rattus norvegicus, UniProt P14842); assay: In Vitro Serotonin (5-HT2) Receptor Binding, [3H]ketanserin; details: for Ki: rat cortical membranes, 1 nM [3H]ketanserin
T3 construct: Rat cortical synaptosomal membranes were prepared on the day of assay; from tissue; host or cells: rat frontal cortex synaptosomal membranes
T3 sequence (P14842 whole entry): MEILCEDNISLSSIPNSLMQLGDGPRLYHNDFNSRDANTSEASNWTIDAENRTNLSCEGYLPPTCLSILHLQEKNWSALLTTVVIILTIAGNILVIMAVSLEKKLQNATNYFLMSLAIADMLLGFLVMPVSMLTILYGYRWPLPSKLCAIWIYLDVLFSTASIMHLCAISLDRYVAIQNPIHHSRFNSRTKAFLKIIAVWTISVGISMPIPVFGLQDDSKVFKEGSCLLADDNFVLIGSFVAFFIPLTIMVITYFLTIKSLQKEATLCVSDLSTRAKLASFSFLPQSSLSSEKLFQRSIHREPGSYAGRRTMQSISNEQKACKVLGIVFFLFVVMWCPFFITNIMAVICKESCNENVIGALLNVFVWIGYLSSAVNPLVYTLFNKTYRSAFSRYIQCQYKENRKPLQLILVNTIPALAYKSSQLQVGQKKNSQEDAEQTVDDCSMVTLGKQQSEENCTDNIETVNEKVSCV
Procedure: The potency of compounds to inhibit the specific binding of [^3 H]ketanserin (84.2 Ci/mM) to serotonin 5-HT2 receptors was determined as detailed previously [J. E. Leysen, C. J. E. Niemegers, J. M. Van Neuten and P. M. Laduron, Mol. Pharmacol., 21, 301-314 (1982)]. Rat cortical synaptosomal membranes were prepared on the day of assay. Animals were sacrified by decapitation, the frontal cortex was removed and homogenized in 10 volumes (w/v) of ice-cold 0.32M sucrose using a motor driven teflon pestle fitted to a glass tube. The synaptosomal pellet was suspended in 50 mM Tris HCl (pH 7.6 at 25° C.) to a concentration of 7.5 mg original wet weight/mL. For the binding reaction, 400 μL of this tissue suspension was added to polypropylene tubes containing 50 mM Tris HCl and [^3 H]ketanserin (final concentration of 1 nM) in a final assay volume of 0.5 mL. Following a 15 minute incubation at 37° C., the binding reaction was terminated by rapid vacuum filtration over Whatman GF/B filters (presoaked in 0.1% PEI) followed by 3×4 mL washes with ice cold 50 mM Tris HCl. Nonspecific binding was assessed in the presence of 10 μM methysergide. All incubations were performed in triplicate. IC50 values were determined using log logit analysis.

[4] = molecular target: sigma receptor ([3H]DTG site); assay: In Vitro Sigma Receptor Binding, [3H]DTG; details: guinea pig brain; 45 minutes at 25° C.
Procedure: as §1, §2

[5] = Motor impairment (rotorod); assay type: in vivo, mice (CF-1); details: for dose at which impairment of rotorod performance was noted: oral
Procedure: (§3) The potency of selected compounds to produce catalepsy and motor impairment was evaluated according to the following methods. Groups of male CF-1 mice (Harlan Sprague-Dawley, Inc.), weighing 25-30 g, were food-deprived for 3-5 hours prior to oral administration of the compound of interest. These agents were suspended in 10% DMSO/10% Tween/80% distilled water vehicle and administered in a volume of 0.01 mL/g body weight. Fifty-five minutes after oral (po) administration, the presence or absence of catalepsy was determined by placing the forepaws on a rod (6 mm diameter) mounted 39 mm above the floor of the test chamber. Pressure was applied to immobilize the subject with its back in a concave position. Following removal of pressure, the latency to recover normal posture, as defined by the return of at least one forepaw to the floor of the chamber, or the placement of one hindlimb on the bar, was recorded. Mice were tested three times and considered cataleptic if recovery was not apparent within 30 seconds during any of the three trials. Following determination of catalepsy and at 60 minutes post administration of compound, motor impairment was determined by placing mice on a rotating knurled bar (Rotorod, Ugo Basile model 7600; 6-7 revolutions per minute; 3.8 cm diameter). Mice were tested up to three times; mice failing to remain on the bar for 60 sec during all three tests were considered impaired.

[6] = In vivo Cataleptic Activity; parameters: species or system mice (CF-1); details: for catalepsy (in words): any dose tested, oral
Procedure: as §3

dopamine receptors [7] = assay: In Vivo Dopamine Antagonist Activity (inhibition of apomorphine-induced climbing); parameters: species or system mice (CF-1)
sigma receptors = details: Snyder and Largent 1988; cited from earlier work
dopamine D-2 receptors = details: Snyder and Largent 1988; cited from earlier work
[8] = rat corpus striatum, 3 nM [3H]sulpiride
[9] = guinea pig brain, read-out: Sigma [3H](+)-3-PPP binding IC50

SMILES | Ki (dopamine (D-2) receptors; [8]) | IC50 [2, 9] | IC50 [4] | Ki [3] | further results
OC(CCCN1CC[C@@H]2[C@@H](C1)c1cc(F)ccc1N2c1ccc(F)cc1)c1ccc(F)cc1 (relative stereo) [4a,9b-trans-8-fluoro-5-(4-fluorophenyl)-2-[4-(4-fluorophenyl)-4-hydroxy-butyl]-2,3,4,4a,9b-hexahydro-1H-pyrido[4,3-b]indole hydrochloride] | – | – | – | – | neuroleptic activity (in words) (dopamine receptors [1]): potent neuroleptic which acts by blocking dopamine receptors
O=C1c2ccccc2C(=O)N1CCCN1C2CCC1c1c([nH]c3ccc(F)cc13)C2 (centres unmarked) [6 F H (CH2)3 2-phthalimido 2] | 12300 ± 1700 nM | 3330 ± 1810 nM | 836 nM | – | inhibition at 1 µM ([3]; read-out: Serotonin 5-HT2 [3H]ketanserin, value @ 1 μM): 4.9%
O=C(COc1ccc(Cl)c(Cl)c1)N1C2CCC1c1c([nH]c3ccccc13)C2 (centres unmarked) [7 H H COCH2 O-3,4-Cl2 Ph 2] | 64500 nM | > 10000 nM | > 10000 nM | – | inhibition at 1 µM ([3]; read-out: Serotonin 5-HT2 [3H]ketanserin, % @ 1 μM): 24.7%
Fc1ccc(CCCCN2C3CCCC2c2c([nH]c4ccc(F)cc24)C3)cc1 (centres unmarked) [11 F H (CH2)4 4-FPh 3] | 1470 nM | 150 nM | 61 nM | 205 nM | –
Fc1ccc(C(=CCCN2C3CCCC2c2c([nH]c4ccccc24)C3)c2ccc(F)cc2)cc1 (centres unmarked) [11 H H (CH2)2 CHC (4-FPh)2 3] | 2310 nM | > 10000 nM | 1880 nM | > 1000 nM | –
O=C(CCCN1C2CCCC1c1c([nH]c3ccccc13)C2)c1ccc(F)cc1 (centres unmarked) [11 H H (CH2)3 CO 4-FPh 3] | 38 nM | – | 43 nM | 0.46 nM | IC50 ([2]; Sigma [3H](+)-3-PPP binding IC50, guinea pig brain): 89 nM
Fc1ccc(CCCCN2C3CCCC2c2c([nH]c4ccccc24)C3)cc1 (centres unmarked) [11 H H (CH2)4 4-FPh 3] | 915 nM | 279 nM | 64 nM | 23.6 nM | –
Fc1ccc(C(=CCCN2C3CCCC2c2c([nH]c4ccc(F)cc24)C3)c2ccc(F)cc2)cc1 (centres unmarked) [12 F H (CH2)2 CHC (4-FPh)2 3] | 3730 nM | 10000 nM | 1910 nM | 625 nM | –
O=C(CCCN1C2CCCC1c1c([nH]c3ccc(F)cc13)C2)c1ccc(F)cc1 (centres unmarked) [12 F H (CH2)3 CO 4-FPh 3] | – | 103 nM | 23 nM | 2.5 nM | Ki (dopamine (D-2) receptors): 200 nM
Fc1ccc2[nH]c3c(c2c1)C1CCCC(C3)N1CCCCc1ccccc1 (centres unmarked) [12 F H (CH2)4 Ph 3] | 1870 nM | 117 nM | 42 nM | 172 nM | –
Fc1ccc2[nH]c3c(c2c1)C1CCCC(C3)N1 (centres unmarked) [12 F H -- H 3] | 58300 nM | 305 nM | 509 nM | 3000 nM | –
O=C(CCCCN1C2CCC1c1c([nH]c3ccccc13)C2)c1ccc(F)cc1 (centres unmarked) [Example 1 H H (CH2)4 CO 4-FPh 2, 11-[5-(4-fluorophenyl)-5-oxopentyl]-5,6,7,8,9,10-hexahydro-7,10-iminocyclohept[b]indole] | – | – | – | – | Failing Rotorod Number ([5]; 300 mg/kg po, n=4): 1; Failing Rotorod Number ([5]; 500 mg/kg po, n=4): 4; dose at which impairment of rotorod performance was noted [5]: 300 to 500 mg/kg; Cataleptic Number ([6]; 300 mg/kg po, n=4): 0; Cataleptic Number ([6]; 500 mg/kg po, n=4): 0; catalepsy (in words) [6]: catalepsy was not observed; potency (ED50) to inhibit apomorphine-induced climbing (dopamine receptors [7]; oral administration, apomorphine 3 mg/kg sc): 15.7 mg/kg
O=C(CCCN1C2CCC1c1c([nH]c3ccc(F)cc13)C2)c1ccc(F)cc1 (centres unmarked) [Example 4 F H (CH2)3 CO 4-FPh 2, 2-fluoro-11-[4-(4-fluorophenyl)-4-oxobutyl]-5,6,7,8,9,10-hexahydro-7,10-iminocyclohept[b]indole] | – | – | – | – | Failing Rotorod Number ([5]; 300 mg/kg po, n=4): 2; Failing Rotorod Number ([5]; 500 mg/kg po, n=3): 1; dose at which impairment of rotorod performance was noted [5]: 300 to 500 mg/kg; Cataleptic Number ([6]; 300 mg/kg po, n=4): 0; Cataleptic Number ([6]; 500 mg/kg po, n=3): 0; catalepsy (in words) [6]: catalepsy was not observed
CN(C)CCCN1c2ccccc2Sc2ccc(Cl)cc21 [chlorpromazine] | – | – | – | – | binding to sigma receptors (in words) (sigma receptors): bind to both dopamine D-2 and sigma receptors; binding to dopamine D-2 receptors (in words) (dopamine D-2 receptors): bind to both dopamine D-2 and sigma receptors
O=C(CCCN1CCC(O)(c2ccc(Cl)cc2)CC1)c1ccc(F)cc1 [haloperidol] | – | – | – | – | binding to sigma receptors (in words) (sigma receptors): bind to both dopamine D-2 and sigma receptors; binding to dopamine D-2 receptors (in words) (dopamine D-2 receptors): bind to both dopamine D-2 and sigma receptors; potency to inhibit apomorphine-induced climbing (reference) (dopamine receptors [7]; intraperitoneal (ip) administration): 0.01 mg/kg

Source: patent publication US5250537A, “5,6,7,8,9,10-hexahydro-7 ,10-iminocyclohept[b]indole,-6,7,8,9,10-hexahydro-7,11-imino-5H-cyclooct[ b]indole and substituted derivatives” (Scios Nova Inc., priority 1992, dated 1993)
